Biological target: T1, Human Nav1.8 (Homo sapiens, UniProt Q9Y5Y9)
T1 construct: expressed in transfected cells; host or cells: HEK293
Assay: VIPR assay for Nav1.8 compounds (FRET membrane potential, deltamethrin-opened channels)
Type: cell-based
Settings: HEK293 cells expressing human Nav1.8; deltamethrin as opener; read-out: affinity for the NaV1.8 channel (binding affinity; IC50 from VIPR assay)
Excerpt: The ability of the pyridine derivatives of the formula (I) to inhibit the NaV1.8 channel may be measured using the assay described below.
VIPR Assay for Nav1.8 Compounds
This screen is used to determine the effects of compounds on tetrodotoxin-resistant (TTX-R) sodium channels in Human Nav1.8 (HEK293) expressing cell line, utilising the technology of Aurora's fluorescent Voltage/Ion Probe Reader (VIPR). This experiment is based on FRET (Fluorescence Resonance Energy Transfer) and uses two fluorescent molecules. The first molecule, Oxonol (DiSBAC2(3)), is a highly fluorescent, negatively charged, hydrophobic ion that “senses” the trans-membrane electrical potential. […] The voltage dependent redistribution is transduced into a ratiometric fluorescent readout via a second fluorescent molecule (Coumarin (CC2-DMPE)) that binds specifically to one face of the plasma membrane and functions as a FRET partner to the mobile voltage-sensing ion. […]
2. […] Once the incubation is complete, the cells are ready to be assayed using the VIPR for sodium addback membrane potential.
The data was analyzed and reported as normalised ratios of intensities measured in the 460 nm and 580 nm channels. […]
Rf/Ri ratio values are plotted using Excel Labstats (curve fit) or analysed via ECADA to determine an IC50 value for each compound.

T1 sequence (Q9Y5Y9 whole entry): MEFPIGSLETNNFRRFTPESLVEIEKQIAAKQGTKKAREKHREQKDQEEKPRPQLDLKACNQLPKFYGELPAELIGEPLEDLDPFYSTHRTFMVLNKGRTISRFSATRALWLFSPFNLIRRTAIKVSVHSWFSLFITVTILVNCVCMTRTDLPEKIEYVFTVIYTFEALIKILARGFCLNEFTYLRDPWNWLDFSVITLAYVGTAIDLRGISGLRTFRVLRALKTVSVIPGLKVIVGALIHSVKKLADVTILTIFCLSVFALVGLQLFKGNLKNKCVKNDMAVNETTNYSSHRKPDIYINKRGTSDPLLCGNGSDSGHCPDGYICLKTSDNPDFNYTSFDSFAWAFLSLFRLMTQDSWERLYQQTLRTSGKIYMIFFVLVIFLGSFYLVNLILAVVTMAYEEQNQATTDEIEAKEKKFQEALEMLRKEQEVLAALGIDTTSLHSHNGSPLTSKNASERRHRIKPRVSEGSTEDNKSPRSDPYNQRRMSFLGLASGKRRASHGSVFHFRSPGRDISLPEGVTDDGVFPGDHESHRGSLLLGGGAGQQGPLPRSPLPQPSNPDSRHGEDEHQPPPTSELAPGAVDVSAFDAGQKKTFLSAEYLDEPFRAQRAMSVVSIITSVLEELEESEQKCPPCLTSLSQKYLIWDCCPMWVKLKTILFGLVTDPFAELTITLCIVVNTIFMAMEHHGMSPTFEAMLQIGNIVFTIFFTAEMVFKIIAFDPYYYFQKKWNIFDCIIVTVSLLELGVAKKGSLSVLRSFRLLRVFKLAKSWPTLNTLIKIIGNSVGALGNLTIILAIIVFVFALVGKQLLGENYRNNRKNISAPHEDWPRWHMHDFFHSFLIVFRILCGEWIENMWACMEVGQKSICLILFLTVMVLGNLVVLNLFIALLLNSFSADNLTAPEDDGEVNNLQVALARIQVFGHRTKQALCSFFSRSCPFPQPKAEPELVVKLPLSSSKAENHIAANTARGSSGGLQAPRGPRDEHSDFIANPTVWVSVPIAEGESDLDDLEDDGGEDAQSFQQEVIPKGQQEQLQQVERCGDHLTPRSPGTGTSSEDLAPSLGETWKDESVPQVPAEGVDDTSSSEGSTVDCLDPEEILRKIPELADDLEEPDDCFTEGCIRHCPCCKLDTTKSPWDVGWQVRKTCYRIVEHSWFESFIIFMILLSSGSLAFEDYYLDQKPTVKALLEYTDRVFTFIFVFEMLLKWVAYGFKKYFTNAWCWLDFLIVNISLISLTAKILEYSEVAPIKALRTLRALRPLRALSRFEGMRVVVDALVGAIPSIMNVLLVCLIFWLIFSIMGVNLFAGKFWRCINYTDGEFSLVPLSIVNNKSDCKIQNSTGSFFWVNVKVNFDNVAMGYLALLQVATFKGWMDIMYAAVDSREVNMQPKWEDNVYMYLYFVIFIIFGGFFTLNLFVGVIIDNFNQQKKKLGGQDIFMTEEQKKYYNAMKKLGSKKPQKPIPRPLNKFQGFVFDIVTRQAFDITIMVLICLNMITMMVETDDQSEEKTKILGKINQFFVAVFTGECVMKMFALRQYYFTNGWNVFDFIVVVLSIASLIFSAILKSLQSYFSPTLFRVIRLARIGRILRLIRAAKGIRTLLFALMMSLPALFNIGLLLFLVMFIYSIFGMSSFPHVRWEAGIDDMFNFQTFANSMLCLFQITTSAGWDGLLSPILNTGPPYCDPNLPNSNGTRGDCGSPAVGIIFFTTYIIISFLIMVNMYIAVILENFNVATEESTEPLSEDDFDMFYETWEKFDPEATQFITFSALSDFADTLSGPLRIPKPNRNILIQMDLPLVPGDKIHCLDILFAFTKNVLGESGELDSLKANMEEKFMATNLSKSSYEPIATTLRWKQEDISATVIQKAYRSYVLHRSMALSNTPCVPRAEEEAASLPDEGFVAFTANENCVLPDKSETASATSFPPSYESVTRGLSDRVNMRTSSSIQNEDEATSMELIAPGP

- IC50: 2.04 µM
Structure (SMILES): CNC(=O)c1ccc(-c2cc(Cl)cc(Cl)c2Cl)c(N)n1 [Example 1, 6-Amino-5-(2,3,5-trichloro-phenyl)-pyridine-2-carboxylic acid methylamide]

Source: patent US7649004B2, “Pyridine derivatives” (Pfizer, Inc., priority 2004, dated 2010)
